Where “and” joins values, the source holds several entries; their conditions need not be identical. Equal entries are not always repeated.
Tests used:
[1] = test system: NCI-H460: human non-small-cell lung cancer; experiment: In vitro cytotoxicity / antiproliferation, NCI-H460; assay type: cell-based; conditions: NCI-H460, read-out: Antiproliferation activity (IC50)
[2] = test system: MDA-MB-231: human breast adenocarcinoma; experiment: In vitro cytotoxicity / antiproliferation, MDA-MB-231; assay type: cell-based; conditions: MDA-MB-231, read-out: Antiproliferation activity (IC50)
[3] = test system: SK-MEL-28: human melanoma; experiment: In vitro cytotoxicity / antiproliferation, SK-MEL-28; assay type: cell-based; conditions: SK-MEL-28, read-out: Antiproliferation activity (IC50)
[4] = test system: A549: human non-small-cell lung carcinoma; experiment: In vitro cytotoxicity / antiproliferation, A549; assay type: cell-based
Protocol: (§1) The in vitro cytotoxicity of boronic derivatives of hydroxamates was tested against various cancer cell lines; the results are provided in Table 1.

[5] = test system: HeLa: human epitheloid cervix carcinoma; experiment: In vitro cytotoxicity / antiproliferation, HeLa; assay type: cell-based
Protocol: as §1

[6] = test system: MCF-7 tumor xenograft; experiment: In vivo efficacy in MCF-7 tumor xenograft model in mice; conditions: 10 mg/kg/day subcutaneous; for effect on tumor growth (in words): compared with vehicle group; for average tumor volume: day 15; for Tumor volume: day 24, MCF-7 xenograft mice
[7] = test system: MCF-7: human breast adenocarcinoma; experiment: In vitro cytotoxicity / antiproliferation, MCF-7; assay type: cell-based; conditions: MCF7
Protocol: as §1

[8] = test system: SK-OV-3: human ovarian cancer; experiment: In vitro cytotoxicity / antiproliferation, SK-OV-3; assay type: cell-based
[9] = biological target: Histone deacetylase (HDAC); experiment: Histone deacetylase activity assay kit (Fluorometric) ab156064; assay type: biochemical; conditions: 20 min incubation; read-out: HDAC inhibitory activity EC50
[10] = Concentration in tumor tissue of MCF-7 xenograft mice; assay type: in vivo; conditions: after 24 days at 10 mg/kg/day subcutaneous
[11] = test system: MDA-MB-231 cells; experiment: In vitro pharmacokinetics: concentrations in culture media after incubation with MDA-MB-231 cells; assay type: in vitro ADME, human; conditions: 1-day incubation with MDA-MB-231 cells
[12] = In vivo pharmacokinetics in mice after intraperitoneal injection (plasma); conditions: single dose 10 mg/kg IP
Protocol: Pharmacokinetic studies of compound 3 in mice were conducted.

| Structure (SMILES) | IC50 [1] | IC50 [2] | IC50 [3] | IC50 [4] | IC50 [5] | IC50 [8] | other results |
| --- | --- | --- | --- | --- | --- | --- | --- |
| CCN(CC)Cc1ccc2cc(COC(=O)Nc3ccc(C(=O)NO)cc3)ccc2c1 [Givinostat, reference compound] | 0.103 µM | 0.119 µM | 0.0913 µM | – | – | – | – |
| O=C(/C=C/c1cccc(S(=O)(=O)Nc2ccccc2)c1)NO [Belinostat, reference compound] | – | 0.0616 µM | – | 0.0766 µM | 0.0865 µM | – | TGI (inhibition of tumor growth) ([6]; 24 days): 77.7%; effect on tumor growth (in words) [6]: potent inhibitory activity against the growth of tumor; average tumor volume [6]: 167 mm^3; Tumor volume [6]: 194 mm^3 and 193.68 ± 29.79 mm^3; IC50 [7]: 0.0964 µM |
| CC1=C(CC(=O)NOCc2ccc(B3OC(C)(C)C(C)(C)O3)cc2)c2cc(F)ccc2/C1=C/c1ccc([S+](C)[O-])cc1 (stereo not drawn) [Compound 11] | 1.01 µM | 20.1 µM | 77.4 µM | 696 µM | 277 µM | 19.4 µM | – |
| COc1cc(C(=O)NOCc2ccc(B3OC(C)(C)C(C)(C)O3)cc2)cc(OC)c1OC [Compound 13] | – | > 10 µM | – | > 10 µM | > 10 µM | – | – |
| COc1ccc(C(=O)NOCc2ccc(B3OC(C)(C)C(C)(C)O3)cc2)cc1 [Compound 10] | – | > 10 µM | – | > 10 µM | > 10 µM | – | – |
| CC(C)Cc1ccc(C(C)C(=O)NOCc2ccc(B3OC(C)(C)C(C)(C)O3)cc2)cc1 (stereo not drawn) [Compound 14] | – | > 10 µM | – | > 10 µM | > 10 µM | – | – |
| CC1(C)OB(c2ccc(CONC(=O)c3cc4ccccc4oc3=O)cc2)OC1(C)C [Compound 15] | – | > 10 µM | – | > 10 µM | > 10 µM | – | – |
| CC1(C)OB(c2ccc(CONC(=O)/C=C/c3cccc(S(=O)(=O)Nc4ccccc4)c3)cc2)OC1(C)C [Compound 3] | 0.43 µM | 0.303 µM | 0.678 µM | 0.453 µM | 0.273 µM | – | EC50 [9]: 0.35 µM; concentration of belinostat and compound 95 added together in tumor tissue, relative to belinostat group [10]: five times greater; conversion of compound 3 in culture media (in words) [11]: completely converted to compound 95 and partially to belinostat; maximum concentration of compound 95 relative to maximum concentration achieved by belinostat [12]: about forty times; T/C (tumor volume ratio) ([6]; 24 days): 14.6%; TGI (inhibition of tumor growth) ([6]; 24 days): 85.3%; effect on tumor growth (in words) [6]: resulted in tumor remission; effect on tumor growth (in words) ([6]; listed as compound 3): potent inhibitory activity against the growth of tumor; average tumor volume [6]: 153 mm^3; Tumor volume [6]: 127 mm^3; IC50 [7]: 1.46 µM |
| CN(C)Cc1ccc(S(=O)(=O)n2ccc(/C=C/C(=O)NOCc3ccc(B4OC(C)(C)C(C)(C)O4)cc3)c2)cc1 [Compound 5] | – | > 10 µM | – | > 10 µM | > 10 µM | – | – |
| Cn1c(CCCC(=O)O)nc2cc(N(CCCl)CCCl)ccc21 [Bendamustine, reference compound] | 45.3 µM | 37.5 µM | 149 µM | – | – | 33.4 µM | – |
| CC1=C(CC(=O)O)c2cc(F)ccc2/C1=C\c1ccc([S+](C)[O-])cc1 (stereo not drawn) [Sulindac, reference compound] | 41.9 µM | 1400 µM | 1400 µM | 20400 µM | 458 µM | 109 µM | – |
| COc1ccc(C(=O)NOCc2ccc(B3OC(C)(C)C(C)(C)O3)cc2)cc1OC [Compound 16] | – | > 10 µM | – | > 10 µM | > 10 µM | – | – |
| CC1(C)OB(c2ccc(CONC(=O)CCCCCCC(=O)Nc3ccccc3)cc2)OC1(C)C [Compound 1] | – | 423 µM | 13.5 µM | – | – | 55.2 µM | – |
| Cn1c(CCCC(=O)NOCc2ccc(B3OC(C)(C)C(C)(C)O3)cc2)nc2cc(N(CCCl)CCCl)ccc21 [Compound 7] | 1.22 µM | 3.33 µM | 0.373 µM | – | – | 1.84 µM | – |
| CCN(CC)Cc1ccc2cc(COC(=O)Nc3ccc(C(=O)NOCc4ccc(B5OC(C)(C)C(C)(C)O5)cc4)cc3)ccc2c1 [Compound 4] | 0.154 µM | 0.321 µM | 0.377 µM | – | – | 0.296 µM | – |

— patent publication US11046715B2, “Boronic derivatives of hydroxamates as anticancer agents” (Xavier University of Louisiana, priority 2016, dated 2021)
